In ChEMBL document CHEMBL6092154, “Design, synthesis, and evaluation of a novel TRAIL-activated HDAC6 inhibitor for the treatment of pulmonary fibrosis” (Bioorg Med Chem, 2024):
Activity calls are given as the source filed them. The calls are words filed in the database; no cut-off is given here.

What was measured:
Histone deacetylase 3 = Histone deacetylase 3 (Homo sapiens, UniProt O15379); assay: Inhibition of HDAC3 (unknown origin) at 1 uM incubated for 30 mins by fluorometric analysis
[1] = target: T1, Histone deacetylase 8 (Homo sapiens) (UniProt Q9BY41); assay: Inhibition of HDAC8 (unknown origin) at 1 uM incubated for 30 mins by fluorometric analysis
T1 sequence (whole entry): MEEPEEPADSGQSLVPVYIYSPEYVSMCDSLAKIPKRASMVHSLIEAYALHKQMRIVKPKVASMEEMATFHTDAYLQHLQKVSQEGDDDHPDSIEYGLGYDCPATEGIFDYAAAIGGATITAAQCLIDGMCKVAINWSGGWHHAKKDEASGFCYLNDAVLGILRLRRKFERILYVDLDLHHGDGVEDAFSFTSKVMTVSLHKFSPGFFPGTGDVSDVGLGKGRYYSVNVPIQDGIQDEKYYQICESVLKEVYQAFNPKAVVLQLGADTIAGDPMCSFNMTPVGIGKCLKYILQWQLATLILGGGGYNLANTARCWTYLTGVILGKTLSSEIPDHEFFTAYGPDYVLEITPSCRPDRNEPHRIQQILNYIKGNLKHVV

NIH3T3 = assay: Antiproliferative activity against mouse NIH/3T3 cells assessed as inhibition of cell growth incubated for 24 to 48 hrs by CCK8 assay; format: functional, cell-based
Fibroblast = assay: Antiproliferative activity against human primary fibroblasts assessed as inhibition of cell growth incubated for 24 to 48 hrs by CCK8 assay; format: functional, cell-based
[2] = target: T2, Protein deacetylase HDAC6 (Homo sapiens) (UniProt Q9UBN7); assay: Inhibition of HDAC6 in human RPMI-8226 cells assessed as increase in acetylated alpha-tubulin level at 0.25 to 1 uM incubated for 24 hrs by western blot analysis; format: cell-based; conditions: dose 0.25-1 µM
T2 sequence (whole entry): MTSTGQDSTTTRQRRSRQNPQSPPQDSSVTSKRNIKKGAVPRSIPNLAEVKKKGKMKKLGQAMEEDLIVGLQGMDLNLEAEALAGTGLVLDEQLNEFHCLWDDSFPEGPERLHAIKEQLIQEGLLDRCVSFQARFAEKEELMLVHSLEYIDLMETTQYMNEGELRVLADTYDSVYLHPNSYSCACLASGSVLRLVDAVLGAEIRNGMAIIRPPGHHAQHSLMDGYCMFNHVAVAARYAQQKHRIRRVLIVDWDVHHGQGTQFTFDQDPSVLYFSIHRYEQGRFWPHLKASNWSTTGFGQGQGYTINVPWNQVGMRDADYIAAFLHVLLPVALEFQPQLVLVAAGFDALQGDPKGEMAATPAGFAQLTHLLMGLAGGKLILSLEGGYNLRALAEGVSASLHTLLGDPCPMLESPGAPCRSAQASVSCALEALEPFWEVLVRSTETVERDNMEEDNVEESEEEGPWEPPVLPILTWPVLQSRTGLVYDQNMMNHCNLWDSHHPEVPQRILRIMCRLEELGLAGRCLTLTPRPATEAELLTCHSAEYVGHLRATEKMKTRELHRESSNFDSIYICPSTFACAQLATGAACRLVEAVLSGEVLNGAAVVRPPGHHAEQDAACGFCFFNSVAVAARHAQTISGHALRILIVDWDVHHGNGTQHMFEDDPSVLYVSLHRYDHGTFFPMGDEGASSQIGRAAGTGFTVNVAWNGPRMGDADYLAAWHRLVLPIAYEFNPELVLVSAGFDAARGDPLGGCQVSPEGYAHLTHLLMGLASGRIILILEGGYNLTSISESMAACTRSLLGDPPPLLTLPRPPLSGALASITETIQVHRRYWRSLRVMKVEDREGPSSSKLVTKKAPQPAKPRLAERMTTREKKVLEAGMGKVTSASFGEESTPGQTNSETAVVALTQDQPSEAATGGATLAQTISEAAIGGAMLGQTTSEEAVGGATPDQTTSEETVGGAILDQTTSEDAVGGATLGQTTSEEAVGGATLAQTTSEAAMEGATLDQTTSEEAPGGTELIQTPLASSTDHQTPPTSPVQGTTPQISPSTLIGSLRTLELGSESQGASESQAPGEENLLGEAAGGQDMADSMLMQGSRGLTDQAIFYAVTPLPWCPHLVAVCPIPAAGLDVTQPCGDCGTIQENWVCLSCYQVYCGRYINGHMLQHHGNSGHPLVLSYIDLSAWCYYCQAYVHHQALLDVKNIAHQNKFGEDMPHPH

[3] = target: T2, Protein deacetylase HDAC6 (Homo sapiens); assay: Inhibition of HDAC6 in human RPMI-8226 cells assessed as increase in acetylated alpha-tubulin level at 1 uM incubated for 24 hrs by western blot analysis; format: cell-based
[4] = target: T2, Protein deacetylase HDAC6 (Homo sapiens); assay: Inhibition of HDAC6 in human RPMI-8226 cells assessed as increase in acetylated histone H4 level at 1 uM incubated for 24 hrs by western blot analysis; format: cell-based
RPMI-8226 = assay: Increase in TRAIL protein expression in human RPMI-8226 cells at 0.5 uM incubated for 24 hrs by western blot analysis; format: functional, cell-based
Mus musculus [5] = assay: Anti-pulmonary fibrosis activity in bleomycin-induced idiopathic pulmonary fibrosis C57BL/6J mouse model assessed as decrease in collagen I protein expression in lung at 50 mg/kg, ig administered daily via gavage measured after 14 days by western blot analysis; format: functional, organism-based; conditions: time 14.0 day
Mus musculus [6] = assay: Anti-pulmonary fibrosis activity in bleomycin-induced idiopathic pulmonary fibrosis C57BL/6J mouse model assessed as decrease in lung damage by measuring decrease in collagen deposition in lungs at 25 to 50 mg/kg, ig administered daily via gavage and measured on day 14 by Masson's trichrome staining based analysis; format: functional, organism-based; conditions: dose 25-50 mg/kg, time 14.0 day
Mus musculus [7] = assay: Anti-pulmonary fibrosis activity in bleomycin-induced idiopathic pulmonary fibrosis C57BL/6J mouse model assessed as decrease in weight loss at 50 mg/kg, ig administered daily via gavage and measured for 14 days; format: functional, organism-based; conditions: time 14.0 day
[8] = Toxicity against bleomycin-induced pulmonary fibrosis C57BL/6J mouse model assessed as effect on heart morphological changes at 25 to 50 mg/kg, ig administered daily via gavage and measured on day 14 by Hematoxylin-Eosin staining based analysis; format: organism-based; conditions: in vivo, po, 336 h, dose 25-50 mg/kg, time 14 day
[9] = Toxicity against bleomycin-induced pulmonary fibrosis C57BL/6J mouse model assessed as effect on liver morphological changes at 25 to 50 mg/kg, ig administered daily via gavage and measured on day 14 by Hematoxylin-Eosin staining based analysis; format: organism-based; conditions: in vivo, po, 336 h, dose 25-50 mg/kg, time 14 day
[10] = Toxicity against silicosis C57BL/6J mouse model assessed as AST index in serum at 50 mg/kg, ig administered daily via gavage and measured on day 28; format: organism-based; conditions: in vivo, po, 672 h, time 28 day
[11] = Toxicity against silicosis C57BL/6J mouse model assessed as ALT index in serum at 50 mg/kg, ig administered daily via gavage and measured on day 28; format: organism-based; conditions: in vivo, po, 672 h, time 28 day
[12] = Toxicity against silicosis C57BL/6J mouse model assessed as effect on heart morphological changes at 50 mg/kg, ig administered daily via gavage and measured on day 28 by Hematoxylin-Eosin staining based analysis; format: organism-based; conditions: in vivo, po, 672 h, time 28 day
[13] = Toxicity against silicosis C57BL/6J mouse model assessed as effect on kidney morphological changes at 50 mg/kg, ig administered daily via gavage and measured on day 28 by Hematoxylin-Eosin staining based analysis; format: organism-based; conditions: in vivo, po, 672 h, time 28 day

Chain of Histone deacetylase 3 (O15379 whole entry): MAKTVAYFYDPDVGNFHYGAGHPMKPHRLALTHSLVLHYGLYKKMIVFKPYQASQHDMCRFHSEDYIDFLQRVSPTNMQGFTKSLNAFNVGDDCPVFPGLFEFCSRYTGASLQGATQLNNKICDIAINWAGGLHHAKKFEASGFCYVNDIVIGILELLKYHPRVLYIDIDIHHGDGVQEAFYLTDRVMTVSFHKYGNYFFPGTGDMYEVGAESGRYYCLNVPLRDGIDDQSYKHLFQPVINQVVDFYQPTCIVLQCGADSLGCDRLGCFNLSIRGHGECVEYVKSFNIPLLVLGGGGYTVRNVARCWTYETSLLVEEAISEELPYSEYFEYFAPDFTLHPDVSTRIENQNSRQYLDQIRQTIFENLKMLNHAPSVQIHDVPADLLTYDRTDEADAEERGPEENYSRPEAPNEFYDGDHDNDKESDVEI

- inhibition (Histone deacetylase 3): 50.8%
- inhibition [1]: 76.2%
- inhibition [2]: Active
SMILES: O=C(NO)c1ccc(CN2C(=O)C3=C(CCN(Cc4cccc(Cl)c4)C3)N3CCN=C23)cc1
- IC50 (NIH3T3): 0.89 µM
- IC50 (Fibroblast): 29.4 µM
- inhibition [3]: Active; Intensity Of Increase Slightly Lower Than Positive Drug, Acy-1215
- inhibition [4]: Active; Intensity Of Increase Slightly Lower Than Positive Drug, Acy-1215
- Activity (RPMI-8226): Active; Comparable Activity To 1 Um Compound Iic And Greater Activity Compared To 1 Um Chidamide, Acy-1215
- Activity (Mus musculus [5]): Active; Superior Activity Compared To Positive Drug, Acy-1215
- Activity (Mus musculus [6]): Active
- Activity (Mus musculus [7]): Active
- Activity [8]: Non-toxic
- Activity [9]: Non-toxic
- Activity [10]: Non-toxic
- Activity [11]: Non-toxic
- Activity [12]: Non-toxic
- Activity [13]: Non-toxic
